Test results as given in patent US20170022215A1, “Compounds for Eradicating or Inhibiting Proliferation of Cancer Stem Cells” (Godavari Biorefineries Limited, priority 2014, published 2017).

Experiments:
[1] = tested on: CD44 expressing population (cancer stem cells) of DU145 cells; assay: Flow cytometry analysis (anti-CD44-PE / anti-CD24-FITC staining) of DU145 prostate cancer cells; type: cell-based; conditions: IC25 drug conc.; for effect on CD44 expressing cell population of DU145 cells (quadrant plot): 48 hrs exposure; for activity on CD44 expressing cells (cancer stem cells population) of DU145 cancer cells compared to standard therapeutic drug Cisplatin: 48 hrs, bar graph FIG. 10, versus Cisplatin
Experimental: (§1) DU145 is a moderately metastatic prostate cancer cell line. Flow cytometry study was conducted to observe the effect of Ethyl-5-methyl-4-(phenylamino) thieno[2,3-d]pyrimidine-6-carboxylate and Ethyl-5-methyl-4-(4-methylphenyl)amino thieno[2,3-d]pyrimidine-6-carboxylate on DU145 cells compared to standard therapeutic drug Cisplatin.
(§2) 1. […] In the quadrant plot upper left region (Q2-UL) only CD44 expressing cells were observed. In the quadrant plot upper right region (Q2-UR) CD44 and CD24 expressing cells were observed. In the quadrant plot lower left region (Q2-LL) […]. In the quadrant plot lower right region (Q2-LR) […].

[2] = tested on: CD44 expressing population (cancer stem cells) of MDA MB231 cells; assay: Flow cytometry analysis (anti-CD44-PE / anti-CD24-FITC staining) of MDA MB231 breast cancer cells; type: cell-based; conditions: IC25 drug conc.; for effect on CD44 expressing cell population of MDA MB231 cells (quadrant plot): 48 hrs exposure; for activity on CD44 expressing cells (cancer stem cells population) of MDA MB231 cancer cells compared to standard therapeutic drug Cisplatin: 48 hrs, bar graph FIG. 5, versus Cisplatin
Experimental: as §1, with “MDA MB231” for “DU145”, “highly” for “moderately”, “breast” for “prostate”
as §2

N.N.[Cl][Pt][Cl] [Cisplatin, reference compound]
effect on CD44 expressing cell population of DU145 cells (quadrant plot) [1]: did not have much effect | effect on CD44 expressing cell population of MDA MB231 cells (quadrant plot) [2]: did not have much effect

CCOC(=O)c1sc2ncnc(Nc3ccc(C)cc3)c2c1C [Ethyl-5-methyl-4-(4-methylphenyl)amino thieno[2,3-d]pyrimidine-6-carboxylate]
effect on CD44 expressing cell population of DU145 cells (quadrant plot) [1]: marked effect | activity on CD44 expressing cells (cancer stem cells population) of DU145 cancer cells compared to standard therapeutic drug Cisplatin [1]: much better and enhanced activity | effect on CD44 expressing cell population of MDA MB231 cells (quadrant plot) [2]: marked effect | activity on CD44 expressing cells (cancer stem cells population) of MDA MB231 cancer cells compared to standard therapeutic drug Cisplatin [2]: much better and enhanced activity

CCOC(=O)c1sc2ncnc(Nc3ccccc3)c2c1C [Ethyl-5-methyl-4-(phenylamino) thieno[2,3-d]pyrimidine-6-carboxylate]
effect on CD44 expressing cell population of DU145 cells (quadrant plot) [1]: marked effect | activity on CD44 expressing cells (cancer stem cells population) of DU145 cancer cells compared to standard therapeutic drug Cisplatin [1]: much better and enhanced activity | effect on CD44 expressing cell population of MDA MB231 cells (quadrant plot) [2]: marked effect | activity on CD44 expressing cells (cancer stem cells population) of MDA MB231 cancer cells compared to standard therapeutic drug Cisplatin [2]: much better and enhanced activity
